Data from PMC7320011, “Rationally designed ruthenium complexes for 1- and 2-photon photodynamic therapy” (Nature Communications, 2020).
Read-outs that look alike come from different tables or passages of the source.

Legend:
HeLa MCTS [1] = assay: 3D MCTS growth inhibition assay; type: cell-based, human; conditions: dark; 1–7 and H2TPP 20 μM, cisplatin 10 μM and 30 μM
Method: MCTS were treated with the sample (20 μM 1–7, 20 μM tetraphenylporphyrin H2TPP, 10 μM cisplatin, 30 μM cisplatin, 2% DMSO, v%) by replacing 50% of the media with drug supplemented media in the dark for 3 days. After this time, the MCTS were exposed to a 1-Photon (500 nm, 16.7 min, 10.0 mW cm^−2, and 10 J cm^−2) irradiation using a LED light source or 2-Photon (800 nm, 10 J cm^−2 with a section interval of 5 μm) irradiation using a LSM 880 (Carl Zeiss) laser scanning confocal microscope equipped with a Coherent Chameleon 2-Photon laser. The cell culture media was replaced every 2 days. The integrity and diameter of the MCTs was monitored with an Axio Observer Z1 (Carl Zeiss) phase contrast microscope every 24 h.

HeLa MCTS [2] = assay: (Photo-)cytotoxicity on 3D MCTS (ATP concentration); type: cell-based, human; conditions: 1-3 as chloride salts
Method: The cytotoxicity of the compounds in 3D MCTS was assessed by measurement of the ATP concentration. MCTS were treated with increasing concentrations of the compound (2% DMSO, v%) by replacing 50% of the media with drug supplemented media and incubation for 12 h. After this time, the MCTS were divided in three identical groups. The first group was strictly kept in the dark. The second group was exposed to a 1-Photon irradiation (500 nm, 16.7 min, 10.0 mW cm^−2, and 10 J cm^−2) using a LED light source and the third group was exposed to a 2-Photon irradiation (800 nm, 10 J cm^−2 with a section interval of 5 μm) using a LSM 880 (Carl Zeiss, Germany) laser scanning confocal microscope equipped with a Coherent Chameleon 2-Photon laser. After the irradiation, all groups were incubated additional 48 h. The ATP concertation was measured using a CellTiter-Glo 3D Cell Viability kit (Promega) by measuring the generated chemiluminescence with an infinite M200 PRO (Tecan) plate reader.

[3] = tested on: mouse colon carcinoma (CT-26) cells
Method: (§1) A total of 4 × 10^3 cells were seeded on 96-well plates and allowed to adhere overnight. The cells were treated with increasing concentrations of the sample diluted in cell media achieving a total volume of 200 μL. The cells were incubated with the sample for 8 h and, after this time, the medium refreshed. To study the phototoxic effect of the sample, the cells were exposed to 480 nm (spectral half-width: 20 nm, 10 min, 5.2 mW cm^−2, 3.1 J cm^−2) or 540 nm (spectral half-width: 30 nm, 40 min, 4.0 mW cm^−2, 9.5 J cm^−2) light using an Atlas Photonics LUMOS BIO irradiator. To study the dark cytotoxicity of the sample, the cells were not irradiated and the medium exchanged. The cells were grown for an additional 40 h at 37 °C. After this time, the medium was replaced with fresh medium containing resazurin with a final concentration of 0.2 mg mL^−1. The cells were incubated for 4 h and the amount of the fluorescent product resorufin determined (λex = 540 nm, λem = 590 nm) with a SpectraMax M2 Microplate Reader (Molecular Devices). The obtained data was analyzed with the GraphPad Prism software.

[4] = tested on: noncancerous retinal pigment epithelium (RPE-1) cells
Method: as §1

[5] = tested on: noncancerous retinal pigment epithelium (RPE-1) cells; assay: (Photo-)cytotoxicity on 2D cell monolayers, RPE-1
Method: as §1

[6] = tested on: human cervical carcinoma (HeLa) cells; assay: (Photo-)cytotoxicity on 2D cell monolayers, HeLa; type: cell-based; conditions: for IC50: 1-3 as chloride salts
Method: as §1

[7] = Photostability (absorption spectra upon irradiation); type: physicochemical; conditions: 450 nm, 0 to 10 min (13.2 J cm^−2), air-saturated acetonitrile
Method: The sample was prepared in an air-saturated acetonitrile solution. Using a Atlas Photonics LUMOS BIO irradiator, the sample was constantly irradiated at 450 nm in time intervals from 0 to 10 min (13.2 J cm^−2). The absorption spectra from 350 to 700 nm was monitored with a SpectraMax M2 Microplate Reader (Molecular Devices) at each time interval. As positive and negative controls, respectively, [Ru(2,2′-bipyridine)3]Cl2 and Protoporphyrin IX were used.

[8] = tested on: human glioblastoma astrocytoma (U373) cells; assay: (Photo-)cytotoxicity on 2D cell monolayers, U373;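 note: Resazurin-to-resorufin fluorescence viability readout, 8 h compound exposure then medium change, light dose 3.1 J cm^−2 at 480 nm or 9.5 J cm^−2 at 540 nm, analysed 40 h later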
Method: as §1

[9] = tested on: mouse colon carcinoma (CT-26) cells; assay: (Photo-)cytotoxicity on 2D cell monolayers, CT-26
Method: as §1

[10] = tested on: human glioblastoma astrocytoma (U373) cells;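 note: Resazurin-to-resorufin fluorescence viability readout, 8 h compound exposure then medium change, light dose 3.1 J cm^−2 at 480 nm or 9.5 J cm^−2 at 540 nm, analysed 40 h later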
Method: as §1

[11] = parameters: method as in PMID 10907495; conditions: cited from earlier work
[12] = parameters: method as in earlier work; conditions: acetonitrile; cited from earlier work
[13] = Homo sapiens, dark, read-out: IC50 dark

With C1=Cc2nc1c(-c1ccccc1)c1nc(c(-c3ccccc3)c3ccc([nH]3)c(-c3ccccc3)c3ccc([nH]3)c2-c2ccccc2)C=C1 [H2TPP, tetraphenylporphyrin, reference compound] the “tumor growth inhibition effect (MCTS volume)” value (HeLa MCTS [1]) was “do not show any inhibitory effect”, the IC50 (HeLa MCTS [2]; [13]) was > 100 µM and the IC50 (HeLa MCTS [2]; Homo sapiens, light or radiation study, 1P 500 nm, read-out: IC50 1P irradiation (500 nm, 10 J cm-2)) was > 100 µM. For the same compound, the IC50 (HeLa MCTS [2]; Homo sapiens, light or radiation study, 2P 800 nm, section interval 5 μm, read-out: IC50 2P irradiation (800 nm, 10 J cm-2)) was > 100 µM.

C=CC1=C(C)c2cc3[nH]c(cc4nc(cc5[nH]c(cc1n2)c(C)c5CCC(=O)O)C(CCC(=O)O)=C4C)c(C)c3C=C [PpIX, Protoporphyrin IX, reference compound] gave an IC50 [3] of 3.5 µM, an IC50 [4] of 3.8 µM and an IC50 ([5]; Homo sapiens, RPE-1, 40 min, read-out: IC50 540 nm (40 min, 9.5 J cm-2)) of 3.3 µM. The IC50 ([5]; Homo sapiens, RPE-1, read-out: IC50 dark) was > 100 µM, the “PI (480 nm)” value ([5]; RPE-1, dark vs 480 nm) was > 26.3 and the “PI (540 nm)” value ([5]; RPE-1, dark vs 540 nm) was > 30.3. For the same compound, the IC50 ([6]; Homo sapiens, 10 min, 480 nm, read-out: IC50 480 nm (10 min, 3.1 J cm-2)) was 2.5 µM, the IC50 ([6]; Homo sapiens, 40 min, 540 nm, read-out: IC50 540 nm (40 min, 9.5 J cm-2)) was 2.1 µM and the IC50 [6, 13] was > 100 µM. For the same compound, the “PI (480 nm)” value ([6]; dark vs 480 nm) was > 40.0, the “PI (540 nm)” value ([6]; dark vs 540 nm) was > 47.6 and the “photostability (change of absorption spectra upon irradiation)” value [7] was “drastically changed”. For the same compound, the IC50 ([8]; Homo sapiens, U373 MG, 10 min, read-out: IC50 480 nm (10 min, 3.1 J cm-2)) was 3.3 µM, the IC50 ([8]; Homo sapiens, U373 MG, read-out: IC50 dark) was > 100 µM and the “PI (480 nm)” value ([8]; U373, dark vs 480 nm) was > 30.3. For the same compound, the “PI (540 nm)” value ([8]; U373, dark vs 540 nm) was > 27.8, the “PI (480 nm)” value ([9]; CT-26, dark vs 480 nm) was > 28.6 and the “PI (540 nm)” value ([9]; CT-26, dark vs 540 nm) was > 24.4. The IC50 ([9]; Mus musculus, CT26, 40 min, read-out: IC50 540 nm (40 min, 9.5 J cm-2)) was 4.1 µM, the IC50 ([9]; Mus musculus, CT26, read-out: IC50 dark) was > 100 µM and the IC50 [10] was 3.6 µM.

For O=C([O-])c1c(Cl)c(Cl)c(Cl)c(Cl)c1-c1c2cc(I)c(=O)c(I)c-2oc2c(I)c([O-])c(I)cc12.[Na+].[Na+] [Rose Bengal], the “Φ, singlet oxygen quantum yield of the reference” value [11] is given as 76%.

In the case of [Cl-].[Cl-].[Ru+2].c1ccc(-c2ccccn2)nc1.c1ccc(-c2ccccn2)nc1.c1ccc(-c2ccccn2)nc1 [[Ru(2,2′-bipyridine)3]Cl2], the “Φem, luminescence quantum yield of the reference” value [12] is listed as 5.9%.

In the case of N.N.[Cl][Pt][Cl] [cisplatin, reference compound], the “tumor growth inhibition effect (MCTS volume)” value (HeLa MCTS [1]) is reported as “weak effect on the tumor growth”, the IC50 ([5]; read-out: IC50 dark, RPE-1, dark, 1-3 as chloride salts) is reported as 29.3 µM and the IC50 ([6]; dark, read-out: IC50 dark) is reported as 10.5 µM. For the same compound, the IC50 ([8]; read-out: IC50 dark, U373, dark, 1-3 as chloride salts) was 17.6 µM, the IC50 (HeLa MCTS [2]; dark, read-out: IC50 dark) was 18.6 ± 1.3 µM and the IC50 ([9]; read-out: IC50 dark, CT-26, dark, 1-3 as chloride salts) was 6.5 µM.
